Where only a bound is given, the exact number is not on record here.

The target of this test is Vascular endothelial growth factor receptor 2 (Homo sapiens, UniProt P35968). Briefly: Inhibition Assay: The object of this assay was to test the inventive compounds for the kinase inhibitory activity in vitro. In this assay, an isotopic labeling method was used to label the gamma phosphate group on ATP. EGFR (including wild type, L858R mutant type and L858R/T790M double mutant type), VEGFR2, ALK, BTK, c-KIT, c-SRC, MET, PDGFRalpha and FLT3 kinases were tested in vitro for the activity inhibition. Staurosporine was used as a reference molecule (or referred to as a positive control). […] The IC50 value can be obtained by the calculation of the inhibitory rates at a series of different concentrations of the tested compounds. 1. Materials: 20mM 3-(N-morpholinyl)propylsulfonic acid (MOPS); 1mM Ethylenediaminetetraacetic acid (EDTA); 0.01% Polyethylene glycol lauryl ether (Brij-35).
Vascular endothelial growth factor receptor 2, sequence (P35968 20-1356 limits assumed, stated change not applied): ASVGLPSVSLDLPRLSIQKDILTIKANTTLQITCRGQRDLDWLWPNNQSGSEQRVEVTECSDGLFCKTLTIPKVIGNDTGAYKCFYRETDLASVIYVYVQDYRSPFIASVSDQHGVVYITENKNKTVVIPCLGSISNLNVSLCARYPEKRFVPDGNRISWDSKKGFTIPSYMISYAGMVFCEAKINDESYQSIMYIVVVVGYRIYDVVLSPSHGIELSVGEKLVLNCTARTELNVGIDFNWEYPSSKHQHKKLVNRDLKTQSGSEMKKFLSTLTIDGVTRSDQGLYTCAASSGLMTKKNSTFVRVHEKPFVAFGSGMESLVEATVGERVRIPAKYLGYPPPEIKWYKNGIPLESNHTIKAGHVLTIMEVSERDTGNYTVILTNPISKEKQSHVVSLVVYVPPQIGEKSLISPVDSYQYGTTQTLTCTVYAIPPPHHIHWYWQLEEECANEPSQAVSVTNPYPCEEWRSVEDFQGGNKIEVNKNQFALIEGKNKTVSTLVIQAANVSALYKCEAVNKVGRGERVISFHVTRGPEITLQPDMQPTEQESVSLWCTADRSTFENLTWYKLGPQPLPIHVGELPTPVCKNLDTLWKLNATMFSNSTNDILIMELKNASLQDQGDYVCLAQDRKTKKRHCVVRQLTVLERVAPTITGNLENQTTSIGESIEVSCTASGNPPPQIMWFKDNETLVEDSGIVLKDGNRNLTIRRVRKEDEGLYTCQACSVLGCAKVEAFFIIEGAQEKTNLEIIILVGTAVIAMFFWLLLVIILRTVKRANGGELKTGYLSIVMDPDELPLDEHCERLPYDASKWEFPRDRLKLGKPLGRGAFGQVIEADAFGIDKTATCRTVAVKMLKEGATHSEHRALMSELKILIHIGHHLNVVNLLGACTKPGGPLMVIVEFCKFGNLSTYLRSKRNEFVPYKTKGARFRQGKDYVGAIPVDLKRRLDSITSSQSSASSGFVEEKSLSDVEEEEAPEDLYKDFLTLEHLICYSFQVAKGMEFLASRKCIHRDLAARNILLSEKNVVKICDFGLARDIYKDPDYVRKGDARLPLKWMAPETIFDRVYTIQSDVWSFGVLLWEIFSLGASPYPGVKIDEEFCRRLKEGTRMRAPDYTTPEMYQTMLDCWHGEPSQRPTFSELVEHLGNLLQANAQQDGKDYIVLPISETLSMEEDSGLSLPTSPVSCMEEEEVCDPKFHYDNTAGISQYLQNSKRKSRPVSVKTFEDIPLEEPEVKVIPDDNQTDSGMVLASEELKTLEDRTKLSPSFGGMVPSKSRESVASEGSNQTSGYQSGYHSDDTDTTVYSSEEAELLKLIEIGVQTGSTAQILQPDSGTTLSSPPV

On to `CC(C)n1c(Nc2ccccc2)nc2cnc(Nc3ccc(C(=O)NN4CCN(C)CC4)cc3F)nc21`, for which the 50% inhibitory concentration (IC50) (in general, the concentration that gives 50% inhibition) is greater than 1000 nM.

The record behind these values is ChEMBL document CHEMBL3638579, “Arylamino purine derivatives, preparation method and pharmaceutical use thereof” (2015).
